Measurements reported in US6410265B1, “Gene encoding a putive efflux protein for solvents/antibiotics in Pseudomonas mendocina” (priority 1997, dated 2002).

Columns and labels:
[1] = test system: 4.5X(−) Pseudomonas; assay: Antibiotic resistance: colony growth on LB/agar plates with antibiotics; type: cell-based, Pseudomonas mendocina; details: strain with disrupted 4.5X gene; agar plates, concentration ranging from 5 1μg/mL to 25 μg/mL
Protocol: (§1) The transformed Pseudomonas mendocina KR-1, carrying the disrupted putative efflux 4.5X gene, was grown on the agar plates in the presence of different antibiotics or high concentration of PHBA. The growth of the strain with the disrupted 4.5X gene was compared with that of wild type Pseudomonas mendocina strain KR-1.
The colonies were innoculated on the LB plates with different antibiotics separately. The antibiotics include Amp (50 μg/mL), Strep (10 μg/mL), Tec (10 μg/mL), Kam (25 μg/mL) and CM (5 μg/mL, 15 μg/mL and 25 μg/mL). The plates were kept at 30° C. for 48 hour. The growth of the colonies was scored based on the growth of wildtype strain KR-1 and the growth of these colonies on LB plates.

[2] = test system: 4.5X(−); assay: Sensitivity to PHBA: cell growth in liquid minimal medium by optical density; type: cell-based, Pseudomonas mendocina; details: in the presence of 50 mM PHBA, same condition for both strains
Protocol: as §1
The cells were innoculated in the liquid medium consisting of minimal medium (in 1 L solution, sodium phosphate, monobasic, 1.85 g; potassium phosphate, dibasic, 5.84 g; ammonia sulphate, 1.5 g; yeast extract, 500 mg; 1x minerals, 2% glucose and 50 mM PHBA). The cultures were kept at 30° C. in a shaker incubator for 48 hours. The cell growth was monitored by optical density (O.D) measurements using a spectrophotometer.

Structure (SMILES)	Growth on plates with chloramphenicol [1]	Growth of 4.5X(−) strain relative to wildtype strain [2]
O=C(N[C@H](CO)[C@H](O)c1ccc([N+](=O)[O-])cc1)C(Cl)Cl [CM, choromphenecol]	unable to grow	
O=C(O)c1ccc(O)cc1 [PHBA, p-hydroxybenzoic acid]		four times slower
